Holding throughout (assay): Capturing ability analysis, peptide-bonded magnetic beads mixed with cells
Type in all cases: cell-based

The test system of assay [1] is colorectal cancer stem cells (CR-CSC). The settings on record: colorectal cancer stem cell (CR-CSC); 2×10^5 cells, room temperature, 25 rpm 30 minutes. The text has this: (§1) In one embodiment, the peptide sequences of Seq ID: NO. 1 to Seq ID: NO. 3 are respectively bonded to the beads and mixed with different cell lines , respectively, including colorectal cancer cells (HCT-8), colorectal cancer stem cells (CR-CSC), human hepatoma cells (HepG2), human in situ pancreatic cancer cells (BxPC-3), human lung adenocarcinoma cells (A549) and human breast cancer cells (MCF7). Wherein, the beads having peptide sequences are mixed with each cell line at room temperature for 25 rpm 30 minutes, and the cell number of each cell line is 2×10^5. After washing for several times, the number of cells captured with magnetic beads having the above peptide sequences are calculated and the results are shown as Table 1 below.

Assay [2] relates to human breast cancer cells (MCF7). Conditions: human breast cancer cell (MCF7); 2×10^5 cells, room temperature, 25 rpm 30 minutes.
From the text: as §1

In assay [3] the test system is human hepatoma cells (HepG2). Conditions: human hepatoma cell (HepG2); 2×10^5 cells, room temperature, 25 rpm 30 minutes.
From the text: as §1

Assay [4] concerns human in situ pancreatic cancer cells (BxPC-3). Conditions: human in situ pancreatic cancer cell (BxPC-3); 2×10^5 cells, room temperature, 25 rpm 30 minutes.
From the text: as §1

The test system of assay [5] is human lung adenocarcinoma cells (A549). The settings on record: human lung adenocarcinoma cell (A549); 2×10^5 cells, room temperature, 25 rpm 30 minutes.
From the text: as §1

The subject of assay [6] is colorectal cancer cells (HCT-8). Conditions: colorectal cancer cell (HCT-8); 2×10^5 cells, room temperature, 25 rpm 30 minutes.
From the text: as §1

Where “and” joins values, the source holds several entries; their conditions need not be identical. Identical values can stand only once.

“Seq ID: NO. 1: peptide sequence screened from M13 phage display peptide library, having binding specificity and affinity to HCT-8 or CR-CSC (AELAKLPLF)”: the “Capturing ability (%)” value in assay [1] is 22.97 ± 4.29%; in assay [2], 12.84 ± 7.67%; in assay [3] it was 23.60 ± 3.50%; in assay [4], 3.41 ± 1.14%; in assay [5], 28.51 ± 7.09%; in assay [6] it was 43.30% and 43.40 ± 7.23%.
On to “Seq ID: NO. 2: peptide sequence screened from M13 phage display peptide library, having binding specificity and affinity to HCT-8 or CR-CSC (GAISFDHVHP)”, for which the “Capturing ability (%)” value in assay [1] is 20.85 ± 0.61%; in assay [2], 20.45 ± 4.04%; in assay [3] it was 23.02 ± 2.77%; in assay [4], 3.13 ± 0.62%; in assay [5], 34.29 ± 5.22%; in assay [6], 45.16% and 45.16 ± 7.12%.
For “Seq ID: NO. 3: peptide sequence screened from M13 phage display peptide library, having binding specificity and affinity to HCT-8 or CR-CSC (MNAKWPIENLMN)”, the “Capturing ability (%)” value was 49.79% and 49.79 ± 5.34% in assay [1]; 10.68 ± 5.08% in assay [2]; 17.87 ± 6.18% in assay [3]; 3.58 ± 1.18% in assay [4]; 16.77 ± 6.49% in assay [5]; 9.42 ± 2.67% in assay [6].

Values taken from US20160153997A1, “OLIGOPEPTIDE SPECIFIC TO COLORECTAL CANCER CELL AND APPLICATION THEREOF” (National Tsing Hua University, priority 2014, published 2016).
